According to US7728012B2, “Carboxamide compounds and their use as calpain inhibitors” (Abbott GmbH & Co. KG, priority 2006, dated 2010):

What was measured:
Type in all cases: biochemical
[1] = molecular target: T1, calpain-I isolated from human erythrocytes (Homo sapiens, UniProt P07384); experiment: Calpain I kinetic fluorescence enzyme inhibition assay; conditions: apparent Ki from IC50 by Cheng-Prussoff; average of 2 to 4 dose-effect plots
T1 construct: calpain-I—isolated from human erythrocytes; purchased Calbiochem 208713; host or cells: human erythrocytes (tissue isolate)
T1 sequence (P07384 1-714): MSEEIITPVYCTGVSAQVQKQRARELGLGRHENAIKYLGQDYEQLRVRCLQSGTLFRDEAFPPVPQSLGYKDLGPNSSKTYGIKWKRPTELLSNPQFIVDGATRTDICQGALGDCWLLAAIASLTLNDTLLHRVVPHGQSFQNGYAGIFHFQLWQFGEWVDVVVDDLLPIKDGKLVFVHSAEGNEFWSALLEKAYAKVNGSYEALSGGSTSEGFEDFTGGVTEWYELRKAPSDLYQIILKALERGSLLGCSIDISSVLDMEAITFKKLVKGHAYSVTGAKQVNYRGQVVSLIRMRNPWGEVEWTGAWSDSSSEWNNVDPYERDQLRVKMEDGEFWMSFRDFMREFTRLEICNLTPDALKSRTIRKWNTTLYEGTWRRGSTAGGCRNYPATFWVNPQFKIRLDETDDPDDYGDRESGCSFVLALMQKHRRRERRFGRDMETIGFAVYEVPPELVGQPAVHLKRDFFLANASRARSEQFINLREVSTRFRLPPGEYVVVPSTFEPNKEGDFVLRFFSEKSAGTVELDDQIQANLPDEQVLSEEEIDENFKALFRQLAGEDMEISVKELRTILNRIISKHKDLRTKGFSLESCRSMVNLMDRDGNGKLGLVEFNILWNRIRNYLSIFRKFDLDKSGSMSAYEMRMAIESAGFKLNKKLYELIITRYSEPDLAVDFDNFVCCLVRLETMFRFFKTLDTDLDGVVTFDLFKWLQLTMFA
T1 sequence (P04632 1-268 partner): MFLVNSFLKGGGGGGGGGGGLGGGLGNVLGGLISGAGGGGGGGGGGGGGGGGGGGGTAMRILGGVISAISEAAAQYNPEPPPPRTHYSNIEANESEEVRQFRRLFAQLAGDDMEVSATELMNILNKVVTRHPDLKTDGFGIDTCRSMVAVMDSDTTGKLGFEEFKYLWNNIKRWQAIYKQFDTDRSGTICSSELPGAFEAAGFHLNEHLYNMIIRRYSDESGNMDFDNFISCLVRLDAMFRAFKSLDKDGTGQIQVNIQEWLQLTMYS

[2] = molecular target: T2, cathepsin B isolated from human liver (Homo sapiens, UniProt P07858); experiment: Cathepsin B kinetic fluorescence enzyme inhibition assay; conditions: selectivity ratio versus calpain I
T2 construct: cathepsin B—isolated from human liver; purchased Calbiochem 219362; host or cells: human liver (tissue isolate)
Summary of the method: (§1)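 cat B 0.25 nM + Z-Phe-Arg-AMC 100 μM; cat L 1 nM + Z-Phe-Arg-AMC 2 μM; cat S 0.5 nM (E. coli-expressed) + Z-Val-Val-Arg-AMC 20 μM. 50 mM MES pH 6.0, 2.5 mM L-Cys, RT. Ex 390/em 460, kinetic; Ki app = Cheng-Prusoff from IC50, mean of 2–4 curves.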

[3] = molecular target: T3, cathepsin K activated from recombinant human procathepsin K (Homo sapiens, UniProt P43235); experiment: Cathepsin K kinetic fluorescence enzyme inhibition assay; conditions: selectivity ratio versus calpain I
T3 construct: purchased Calbiochem 342001; host or cells: E. coli
T3 sequence (P43235 115-329): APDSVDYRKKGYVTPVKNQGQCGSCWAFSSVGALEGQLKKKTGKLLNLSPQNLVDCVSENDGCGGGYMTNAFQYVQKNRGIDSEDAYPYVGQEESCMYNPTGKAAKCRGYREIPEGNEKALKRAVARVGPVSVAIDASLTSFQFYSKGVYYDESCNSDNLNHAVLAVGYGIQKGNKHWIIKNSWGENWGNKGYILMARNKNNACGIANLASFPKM

[4] = molecular target: T4, cathepsin L isolated from human liver (Homo sapiens, UniProt P07711); experiment: Cathepsin L kinetic fluorescence enzyme inhibition assay; conditions: selectivity ratio versus calpain I
T4 construct: cathepsin L—isolated from human liver; purchased Calbiochem 219402; host or cells: human liver (tissue isolate)
Summary of the method: as §1

[5] = molecular target: T5, recombinant human cathepsin S (Homo sapiens, UniProt P25774); experiment: Cathepsin S kinetic fluorescence enzyme inhibition assay; conditions: selectivity ratio versus calpain I
T5 construct: purchased Calbiochem 219343; host or cells: E. coli
Summary of the method: as §1

T4 sequence (P07711 114-333): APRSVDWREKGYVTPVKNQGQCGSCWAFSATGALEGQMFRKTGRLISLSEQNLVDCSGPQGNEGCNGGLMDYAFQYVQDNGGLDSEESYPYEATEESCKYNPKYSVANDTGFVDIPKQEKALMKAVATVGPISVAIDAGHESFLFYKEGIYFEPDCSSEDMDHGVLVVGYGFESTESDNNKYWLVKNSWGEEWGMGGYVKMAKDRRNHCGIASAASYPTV
T5 sequence (P25774 115-331): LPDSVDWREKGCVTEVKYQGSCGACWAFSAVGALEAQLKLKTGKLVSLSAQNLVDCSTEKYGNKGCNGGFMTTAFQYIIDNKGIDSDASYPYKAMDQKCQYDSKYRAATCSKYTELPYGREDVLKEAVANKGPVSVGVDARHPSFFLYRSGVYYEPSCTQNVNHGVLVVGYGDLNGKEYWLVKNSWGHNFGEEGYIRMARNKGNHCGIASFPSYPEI

Row | Ki [1] [nM] | Sel cat. B (Ki(cathepsin B)/Ki(calpain) ratio) [2] | Sel cat. K (Ki(cathepsin K)/Ki(calpain) ratio) [3] | SMILES | Sel cat. L (Ki(cathepsin L)/Ki(calpain) ratio) [4] | Sel cat. S (Ki(cathepsin S)/Ki(calpain) ratio) [5]
1 | 40 to 100 | + (10≦Ki(cathepsin B)/Ki(calpain)<30) | + (10≦Ki(cathepsin K)/Ki(calpain)<30) | NC(=O)C(=O)C(Cc1ccccc1)NC(=O)c1cccnc1-n1ccc(-c2cc(C(F)(F)F)ccc2CN2CCOCC2)n1 (stereo not drawn) [Example 163, N-[3-Amino-2,3-dioxo-1-(phenylmethyl)propyl]-2-{3-[2-(morpholin-4-ylmethyl)-5-(trifluoromethyl)phenyl]-1H-pyrazol-1-yl}pyridine-3-carboxamide] | + (30≦Ki(cathepsin L)/Ki(calpain)<50) | ++ (Ki(cathepsin S)/Ki(calpain) ratio of ≧100)
2 | ≤ 40 | + (10≦Ki(cathepsin B)/Ki(calpain)<30) | + (10≦Ki(cathepsin K)/Ki(calpain)<30) | NC(=O)C(=O)C(Cc1ccccc1)NC(=O)c1cccnc1-n1ccc(-c2cccc(OC(F)(F)F)c2)n1 (stereo not drawn) [Example 168, N-[3-Amino-2,3-dioxo-1-(phenylmethyl)propyl]-2-(3-{3-[(trifluoromethyl)oxy]phenyl}-1H-pyrazol-1-yl)pyridine-3-carboxamide] | ++ (Ki(cathepsin L)/Ki(calpain) ratio of ≧50) | ++ (Ki(cathepsin S)/Ki(calpain) ratio of ≧100)
3 | ≤ 40 | + (10≦Ki(cathepsin B)/Ki(calpain)<30) | + (10≦Ki(cathepsin K)/Ki(calpain)<30) | NC(=O)C(=O)C(Cc1ccccc1)NC(=O)c1cccnc1-n1cc2c(n1)-c1ccccc1SC2 (stereo not drawn) [Example 173, N-[3-Amino-2,3-dioxo-1-(phenylmethyl)propyl]-2-thiochromeno[4,3-c]pyrazol-2(4H)-ylpyridine-3-carboxamide] | ++ (Ki(cathepsin L)/Ki(calpain) ratio of ≧50) | ++ (Ki(cathepsin S)/Ki(calpain) ratio of ≧100)
4 | ≤ 40 | + (10≦Ki(cathepsin B)/Ki(calpain)<30) | + (10≦Ki(cathepsin K)/Ki(calpain)<30) | NC(=O)C(=O)C(Cc1ccccc1)NC(=O)c1cccnc1-n1cc2c(n1)-c1ccccc1S(=O)(=O)C2 (stereo not drawn) [Example 174, N-[3-Amino-2,3-dioxo-1-(phenylmethyl)propyl]-2-(5,5-dioxidothiochromeno[4,3-c]pyrazol-2(4H)-yl)pyridine-3-carboxamide] | ++ (Ki(cathepsin L)/Ki(calpain) ratio of ≧50) | ++ (Ki(cathepsin S)/Ki(calpain) ratio of ≧100)

Row | SMILES | Ki [1] [nM] | Sel cat. B (Ki(cathepsin B)/Ki(calpain) ratio) [2] | Sel cat. K (Ki(cathepsin K)/Ki(calpain) ratio) [3] | Sel cat. L (Ki(cathepsin L)/Ki(calpain) ratio) [4] | Sel cat. S (Ki(cathepsin S)/Ki(calpain) ratio) [5]
5 | NC(=O)C(=O)C(Cc1ccccc1)NC(=O)c1cccnc1-n1ccc(-c2cccc3c2OCC3)n1 (stereo not drawn) [Example 164, N-[3-Amino-2,3-dioxo-1-(phenylmethyl)propyl]-2-[3-(2,3-dihydro-1-benzofuran-7-yl)-1H-pyrazol-1-yl]pyridine-3-carboxamide] | ≤ 40 | + (10≦Ki(cathepsin B)/Ki(calpain)<30) | ++ (Ki(cathepsin K)/Ki(calpain) ratio of ≧30) | ++ (Ki(cathepsin L)/Ki(calpain) ratio of ≧50) | ++ (Ki(cathepsin S)/Ki(calpain) ratio of ≧100)
6 | NC(=O)C(=O)C(Cc1ccccc1)NC(=O)c1cccnc1-n1ccc(-c2ccccc2OC(F)F)n1 (stereo not drawn) [Example 166, N-[3-Amino-2,3-dioxo-1-(phenylmethyl)propyl]-2-(3-{2-[(difluoromethyl)oxy]phenyl}-1H-pyrazol-1-yl)pyridine-3-carboxamide] | ≤ 40 | + (10≦Ki(cathepsin B)/Ki(calpain)<30) | ++ (Ki(cathepsin K)/Ki(calpain) ratio of ≧30) | ++ (Ki(cathepsin L)/Ki(calpain) ratio of ≧50) | ++ (Ki(cathepsin S)/Ki(calpain) ratio of ≧100)
